pEC50, pIC50: −log10 of the molar value. Read-outs that look alike come from different tables or passages of the source.
Experiments:
[1] = target: phosphorylated PDK1 (Homo sapiens (Human), UniProt O15530); assay: PDK1 kinase assay (coupled PDK1/AKT/FAM-crosstide, IMAP); assay type: biochemical; details: 0.5 nM phosphorylated PDK1, 24 μM ATP; read-out: Inhibition of phospo-PDK1 in vitro IC50
[2] = target: dephosphorylated PDK1 (Homo sapiens (Human), UniProt O15530); assay: as above; assay type: biochemical; details: 25 nM un-phosphorylated PDK1, 24 μM ATP; read-out: Inhibition of dephospo-PDK1 in vitro IC50
Method: A PDK1 kinase assay was performed as follows. PDK1 (amino acids 51-360) and AKT2 (amino acids 140-467 fused to PIFtide, amino acids […]) were expressed as N-terminally tagged GST fusion proteins in insect cells and purified to greater than 90% homogeneity. PDK1 protein was divided into two fractions, one of which was subsequently dephosphorylated. To generate dephosphorylated PDK1, the PDK1 was reacted with GST-tagged lambda-phosphatase in vitro. GST was subsequently cleaved proteolytically for both phosphorylated and dephosphorylated PDK1. Protein preparations were run on glutathione Sepharose columns to remove GST and GST-tagged lambda-phosphatase, if present. Phosphorylated PDK1 and dephosphorylated PDK1 were verified by mass-spectrometry. Enzyme activity was determined in a coupled PDK1/AKT/FAM-crosstide assay using either phosphorylated or unphosphorylated PDK1 and phosphorylation of FAM-crosstide was determined by standard IMAP protocol (Molecular Devices). For inhibition studies, compounds were titrated 3-fold in DMSO and diluted 40-fold into assay buffer (10 mM Tris HCl pH7.2; 10 mM MgCl2; 0.01% Triton X-100; 1 mM DTT) containing PDK1, AKT2, and FAM-crosstide. (final concentrations: 25 nM un-phosphorylated PDK1 or 0.5 nM phosphorylated PDK1, 30 nM unphosphorylated AKT2, and 100 nM crosstide substrate). The kinase reaction was initiated by adding ATP to a final concentration of 24 μM for both forms of PDK1 and incubated at 25° C. for 30 min. To detect assay product, the kinase reaction was combined with Progressive Binding Solution (1:600 Progressive Binding Reagent, 50% Buffer A, 50% Buffer B, Molecular Devices) in a 1:3 ratio. The mixture was incubated for 2 hours at 25° C. and the plate was scanned on an Analyst AD with excitation at 485 nm and emission at 530 nm. The fluorescence polarization value “P” is defined by the equation below. The value “mP” is generated by multiplying the P value for each reaction well by a factor of 1000. The value “ΔmP” for each well is the mP value for that well minus the mP value for the average negative control. P=(Fpar−Fperp)/(Fpar+Fperp) Eq.:
Where “par” is fluorescence intensity parallel to the excitation plane; and “perp” is fluorescence intensity perpendicular to the excitation plane. ΔmP values were plotted as a function of compound concentration and the data were analyzed with a 4-parameter fit using GraphPad Prism software.

[3] = test system: phospho-akt (Thr308); assay: phospho-akt (Thr308) MSD ELISA in PC-3 cells; assay type: cell-based; details: Homo sapiens; for pEC50 / EC50: PC-3, 2 h; for pEC50: read-out: Inhibition of P308 Akt in cells using MSD EC50; for inhibition at 1 µM / inhibition at 10 µM: read-out: Percent Inhibition of phospho-Akt (308) By MSD ELISA; for EC50: read-out: Reduction of Cellular Levels of Akt p308 By MSD ELISA (EC50 μM)
Method in brief: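 Read-out is MSD electrochemiluminescence after lysate capture overnight at 4 degrees and 1 hr RT detection-antibody step. Before lysis, overnight-plated PC-3 cells received three-fold serial dilutions of inhibitor in serum-free medium, with DMSO-only high controls.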

Sequence of dephosphorylated PDK1 (O15530 51-360): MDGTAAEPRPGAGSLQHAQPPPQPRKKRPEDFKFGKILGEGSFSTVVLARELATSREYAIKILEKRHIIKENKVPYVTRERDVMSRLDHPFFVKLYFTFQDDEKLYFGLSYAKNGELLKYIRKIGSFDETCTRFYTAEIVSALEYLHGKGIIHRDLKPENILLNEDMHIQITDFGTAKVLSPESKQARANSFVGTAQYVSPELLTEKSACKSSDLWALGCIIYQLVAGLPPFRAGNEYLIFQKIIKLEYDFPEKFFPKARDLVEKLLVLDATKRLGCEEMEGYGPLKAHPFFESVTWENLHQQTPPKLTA
Sequence of phosphorylated PDK1 (O15530 51-360): as above

Row | Compound | pIC50 [1] | pIC50 [2] | pEC50 ([3]; PC-3 cells, 2 hours, no serum) | inhibition at 1 µM ([3]; PC-3 cells) [%] | inhibition at 10 µM ([3]; PC-3 cells) [%] | EC50 ([3]; PC-3 cells, 2 hours, no serum) [µM] | pEC50 [3] | EC50 [3] [µM]
1 | CN(C)C(=O)C[C@@H](NC(=O)c1cccn(Cc2ccc(F)c(F)c2)c1=O)c1ccc(-c2c[nH]c3ncccc23)s1 [Cpd 237] | > 6.30 | > 6.30 | < 5.30 | < 25 | 25 to 75 |  |  | 
2 | O=C(NCCOc1ccc2[nH]c(=O)[nH]c2c1)c1cccn(Cc2ccc(F)c(F)c2)c1=O [Cpd 113] | > 6.30 | > 6.30 | < 5.30 |  |  |  |  | 
3 | O=C(N[C@H]1CC[C@@H](c2c[nH]c3ncccc32)CC1)c1cccn(Cc2ccc(F)c(F)c2)c1=O [Cpd 1] | > 6.30 | > 6.30 | < 5.30 |  |  | > 5 |  | 
4 | CC(C)[C@@H](COc1ccc2[nH]c(=O)[nH]c2c1)NC(=O)c1cccn(Cc2ccc(F)c(F)c2)c1=O [Cpd 320] | 5.00 to 6.30 | > 6.30 |  | < 25 | 25 to 75 |  |  | 
5 | O=C(NCc1noc(-c2c[nH]c3ncccc23)n1)c1cccn(Cc2ccc(C(F)(F)F)c(F)c2)c1=O [Cpd 141] | > 6.30 | > 6.30 | 5.30 to 6.00 |  |  | 1 to 5 |  | 
6 | O=C(NCCOc1ccc2cc[nH]c2c1)c1cccn(Cc2ccc(F)c(F)c2)c1=O [Cpd 179] | 5.00 to 6.30 | 5.00 to 6.30 | < 5.30 |  |  |  |  | 
7 | O=C(NCc1noc(-c2c[nH]c3ncccc23)n1)c1cccn(Cc2cc(F)cc(F)c2)c1=O [Cpd 150] | > 6.30 | > 6.30 | < 5.30 |  |  |  |  | 
8 | O=C(NCc1cccc(-c2ccc3ncnn3c2)c1)c1cccn(Cc2ccc(F)c(F)c2)c1=O [Cpd 3] | > 6.30 | > 6.30 |  | < 25 | > 75 | 1 to 5 |  | 
9 | O=C(NCc1noc(-c2ccc3ncnn3c2)n1)c1cccn(Cc2ccc(F)c(F)c2)c1=O [Cpd 235] | 5.00 to 6.30 | > 6.30 |  |  |  | > 5 |  | 
10 | O=C(Nc1cccc(Cc2c[nH]c3ncccc23)c1)c1cccn(Cc2ccc(F)c(F)c2)c1=O [Cpd 128] | 5.00 to 6.30 | > 6.30 | < 5.30 |  |  |  |  | 
11 | O=C(NCc1cccc(-c2ccc(=O)[nH]c2)c1)c1cccn(Cc2ccc(F)c(F)c2)c1=O [Cpd 220] | 5.00 to 6.30 | 5.00 to 6.30 |  | 25 to 75 | 25 to 75 |  |  | 
12 | NC(=O)CC[C@@H](NC(=O)c1cccn(Cc2ccc(F)c(F)c2)c1=O)c1nc(-c2c[nH]c3ncccc23)cs1 [Cpd 318] | > 6.30 | > 6.30 |  | < 25 | 25 to 75 |  |  | 
13 | CC(C)n1c(=O)[nH]c2cc(OCCNC(=O)c3cccn(Cc4ccc(F)c(F)c4)c3=O)ccc21 [Cpd 280] | > 6.30 | > 6.30 | < 5.30 | 25 to 75 | 25 to 75 |  |  | 
14 | O=C(NCCOc1ccc2c(c1)[nH]c(=O)n2C1CC1)c1cccn(Cc2ccc(F)c(F)c2)c1=O [Cpd 282] | > 6.30 | > 6.30 | < 5.30 | < 25 | 25 to 75 |  |  | 
15 | CC1(C)C(=O)Nc2cc(/C=C/CNC(=O)c3cccn(Cc4cc(F)c(F)c(F)c4)c3=O)ccc21 [Cpd 206] | 5.00 to 6.30 | > 6.30 | 5.30 to 6.00 |  |  |  |  | 
16 | O=C(NCc1noc(-c2c[nH]c3ncccc23)n1)c1cc(Cl)cn(Cc2ccc(F)cc2)c1=O [Cpd 319] | > 6.30 | > 6.30 | < 5.30 | < 25 | 25 to 75 |  |  | 
17 | NC(=O)C(NC(=O)c1cccn(Cc2ccc(F)c(F)c2)c1=O)c1ccc(-c2c[nH]c3ncccc23)s1 (centres unmarked) [Cpd 24] | > 6.30 | > 6.30 |  |  |  |  | 5.30 to 6.00 | 1 to 5
18 | O=C(NCc1noc(-c2c[nH]c3ncccc23)n1)c1cc(Cl)cn(Cc2ccc(Cl)c(F)c2)c1=O [Cpd 316] | > 6.30 | > 6.30 |  | 25 to 75 | 25 to 75 |  |  | 
19 | O=C(NCc1cccc(-c2ccc3cn[nH]c3c2)c1)c1cccn(Cc2ccc(F)c(F)c2)c1=O [Cpd 328] | > 6.30 | > 6.30 | < 5.30 |  |  |  |  | 

— patent US9873693B2 (Sunesis Pharmaceuticals, Inc., priority 2006, dated 2018)
